Source: ChEMBL document CHEMBL1201862, “PubChem BioAssay data set” (2004)
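Exposure lasted 48 hours, with cells grown in 96-well plates and compounds tested at five concentrations. GI50 marks 50% less growth.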 Calls of active or inactive are those of the source. No stated cut-off is given here; in the data, active = GI50 up to about 1.1 µM and inactive = higher.

How the values were obtained:
Test in all cases: DTP human tumour cell line panel, 48 h
CAKI-1 = system: CAKI-1
HCT-116 = system: HCT-116
NCI-H522 = system: NCI-H522
OVCAR-5 = system: OVCAR-5
HOP-62 = system: HOP-62
HL-60 = system: HL-60
UACC-257 = system: UACC-257
MDA-MB-231 = system: MDA-MB-231
SK-MEL-5 = system: SK-MEL-5
SW-620 = system: SW-620
SK-MEL-2 = system: SK-MEL-2
OVCAR-4 = system: OVCAR-4
SF-268 = system: SF-268
SR = system: SR
SK-MEL-28 = system: SK-MEL-28
HCC 2998 = system: HCC 2998
EKVX = system: EKVX
OVCAR-8 = system: OVCAR-8
PC-3 = system: PC-3
SN12C = system: SN12C
ACHN = system: ACHN
NCI-H460 = system: NCI-H460
SNB-19 = system: SNB-19
MDA-MB-435 = system: MDA-MB-435
A498 = system: A498
Hs-578T = system: Hs-578T
KM12 = system: KM12
MOLT-4 = system: MOLT-4
786-0 = system: 786-0
A549 = system: A549
HT-29 = system: HT-29
SNB-75 = system: SNB-75
HCT-15 = system: HCT-15
LOX IMVI = system: LOX IMVI
SK-OV-3 = system: SK-OV-3
MDA-N = system: MDA-N
MCF7 = system: MCF7
SF-295 = system: SF-295
OVCAR-3 = system: OVCAR-3
UO-31 = system: UO-31
SF-539 = system: SF-539
IGROV-1 = system: IGROV-1
M14 = system: M14
CCRF-CEM = system: CCRF-CEM
NCI-H226 = system: NCI-H226
RPMI-8226 = system: RPMI-8226
HOP-92 = system: HOP-92
U-251 = system: U-251
TK-10 = system: TK-10
UACC-62 = system: UACC-62
NCI/ADR-RES = system: NCI/ADR-RES
NCI-H23 = system: NCI-H23
K562 = system: K562
T47D = system: T47D
DU-145 = system: DU-145
COLO 205 = system: COLO 205
RXF 393 = system: RXF 393
Malme-3M = system: Malme-3M

Measured: GI50

COC1C(O)C(C)OC(O[C@H]2CC[C@@]3(C)C(CC[C@@H]4[C@@H]3CC[C@]3(C)[C@@H](C(C)OC5OC(CO)C(O)C(O)C5O)CC[C@]43O)C2)C1O (some centres undefined)
> 25 µM: HCT-15
inactive: CAKI-1 > 25 µM | HCT-116 > 25 µM | NCI-H522 > 25 µM | OVCAR-5 > 25 µM | HOP-62 > 25 µM | HL-60 > 25 µM | UACC-257 > 25 µM | MDA-MB-231 > 25 µM | SK-MEL-5 > 25 µM | SW-620 > 25 µM | SK-MEL-2 > 25 µM | OVCAR-4 > 25 µM | SF-268 > 25 µM | SR > 25 µM | SK-MEL-28 > 25 µM | HCC 2998 > 25 µM | EKVX > 25 µM | OVCAR-8 > 25 µM | PC-3 > 25 µM | SN12C > 25 µM | ACHN > 25 µM | NCI-H460 > 25 µM | SNB-19 > 25 µM | MDA-MB-435 > 25 µM | A498 > 25 µM | Hs-578T > 25 µM | KM12 > 25 µM | MOLT-4 > 25 µM | 786-0 > 25 µM | A549 > 25 µM | HT-29 > 25 µM | SNB-75 > 25 µM | LOX IMVI > 25 µM | SK-OV-3 > 25 µM | MDA-N > 25 µM | MCF7 > 25 µM | SF-295 > 25 µM | OVCAR-3 > 25 µM | UO-31 > 25 µM | SF-539 > 25 µM | IGROV-1 > 25 µM | M14 > 25 µM | CCRF-CEM > 25 µM | NCI-H226 > 25 µM | RPMI-8226 > 25 µM | HOP-92 > 25 µM | U-251 > 25 µM | TK-10 > 25 µM | UACC-62 > 25 µM | NCI/ADR-RES > 25 µM | NCI-H23 > 25 µM | K562 > 25 µM

COC1(OC)N=C(N)C2(C#N)C(C)CC(=O)N(N(C)C)C12C#N (centres undefined)
inactive: CAKI-1 > 100 µM | HCT-116 > 100 µM | NCI-H522 > 100 µM | OVCAR-5 > 100 µM | HOP-62 > 100 µM | HL-60 > 100 µM | UACC-257 > 100 µM | MDA-MB-231 > 100 µM | T47D > 100 µM | SK-MEL-5 > 100 µM | SW-620 > 100 µM | SK-MEL-2 > 100 µM | SF-268 > 100 µM | SR > 100 µM | SK-MEL-28 > 100 µM | HCC 2998 > 100 µM | EKVX > 100 µM | OVCAR-8 > 100 µM | PC-3 > 100 µM | SN12C > 100 µM | ACHN > 100 µM | SNB-19 > 100 µM | MDA-MB-435 > 100 µM | A498 > 100 µM | Hs-578T > 100 µM | KM12 > 100 µM | MOLT-4 > 100 µM | 786-0 > 100 µM | A549 > 100 µM | HT-29 > 100 µM | SNB-75 40.5 µM | LOX IMVI > 100 µM | SK-OV-3 > 100 µM | MCF7 > 100 µM | SF-295 > 100 µM | UO-31 > 100 µM | SF-539 > 100 µM | IGROV-1 > 100 µM | M14 > 100 µM | DU-145 > 100 µM | COLO 205 > 100 µM | CCRF-CEM > 100 µM | NCI-H226 > 100 µM | RPMI-8226 > 100 µM | HOP-92 > 100 µM | RXF 393 > 100 µM | U-251 > 100 µM | TK-10 > 100 µM | UACC-62 > 100 µM | NCI/ADR-RES > 100 µM | NCI-H23 > 100 µM | Malme-3M > 100 µM | K562 > 100 µM
> 100 µM: HCT-15

O=C1Cc2c([nH]c3ccc(Cl)cc23)-c2ccccc2N1
inactive: HCT-116 3.17 µM | NCI-H522 > 100 µM | MDA-MB-231 > 100 µM | T47D > 100 µM | SK-MEL-5 > 100 µM | OVCAR-4 > 100 µM | SF-268 > 100 µM | SK-MEL-28 > 100 µM | OVCAR-8 > 100 µM | SN12C > 100 µM | ACHN > 100 µM | NCI-H460 > 100 µM | SNB-19 > 100 µM | MDA-MB-435 > 100 µM | A498 > 100 µM | Hs-578T > 100 µM | 786-0 > 100 µM | A549 > 100 µM | SNB-75 > 100 µM | LOX IMVI 2.13 µM | SK-OV-3 > 100 µM | MDA-N > 100 µM | MCF7 > 100 µM | SF-295 > 100 µM | UO-31 > 100 µM | IGROV-1 > 100 µM | M14 > 100 µM | COLO 205 > 100 µM | NCI-H226 > 100 µM | RPMI-8226 > 100 µM | HOP-92 > 100 µM | U-251 > 100 µM | TK-10 > 100 µM | UACC-62 74.6 µM | NCI/ADR-RES > 100 µM | NCI-H23 > 100 µM | Malme-3M > 100 µM
